Reference: patent US9119395B2, “Active substance mixtures comprising OPP and amines, microbicidal agents” (LANXESS Deutschland GmbH, priority 2005, dated 2015)

How the values were obtained:
Pseudomonas fluorescens = assay: Minimum inhibitory concentration and synergism (Kull synergistic index) of OPP/AMINE 1 combinations; type: cell-based; settings: compound applied on its own (QA/QB)
From the text: The observed synergism of the mixtures according to the invention can be determined by the following mathematical approach (cf. F. C. Kull, P. C. Elisman, H. D. Sylwestrowicz and P. K. Mayer, Appl. Microbiol, 9, 538 (1961):
[formula] where • Qa=the amount of component A in the active compound mixture required to achieve the desired effect, i.e. no microbial growth, • QA=the amount of component A which, applied on its own, suppresses the growth of the microorganisms, • Qb=the amount of component B in the active compound mixture which suppresses the growth of the microorganisms, • Qb=the amount of component B which, applied on its own, suppresses the growth of the microorganisms.
A synergistic index of SI<1, in accordance with the above formula, indicates a synergistic effect for the active compound mixture.
The minimum inhibitory concentration of the active compound combinations listed in Table 1 were examined using the test germ Pseudomonas fluorescens

[1] = system: microorganism mixture: Pseudomonas aeruginosa, Pseudomonas fluorescens, Pseudomonas oleovorans, Pseudomonas rubescens, Pseudomonas stutzeri, Alcalaigenes …; assay: Microbiological preservation stress test in a chalk suspension; type: cell-based; settings: 60° C. for 3 days before test, weekly contamination
From the text: The preserving action of an active compound mixture according to the invention was examined in a chalk suspension using a preservation stress test.
The microbiological stress test examines the susceptibility of water-based systems to microbial attack and the action of preservatives. To this end, the preservatives are incorporated in defined concentrations into the water-based systems. To simulate praxis-like conditions, depending on the medium to be examined, a storage at elevated temperatures (for example 7 days at 40° C., 3 days at 60° C. or the like) may be carried out prior to the actual preservation test to evaluate the preservatives to be examined under conditions which are as realistic as possible. After the preparations have been carried out, contamination with microorganisms of a defined species is carried out at weekly intervals over a test period of at most 6 weeks. 2-3 and 7 days after each contamination, by counting the number of germs, it is established whether a complete kill or at least inhibition of propagation of the bacteria introduced has been achieved, compared to the unpreserved control samples.
The contamination source used for the examination in the stress test was the following microorganism mixture:
Very good activity is achieved when, even after 6 contamination cycles, the reserved samples effect a kill of the microorganisms introduced.
Using a chalk suspension (proportion of solids 70-75%), a preservation stress test according to the above scheme was carried out. After incorporation of the respective biocidally active compounds at the stated concentrations, the samples were exposed to thermal stress at 60° C. for 3 days. The samples pre-treated in this manner were then used for carrying out the microbiological stress test.

Question: With `CCCCCCCCCCCCN(CCCN)CCCN` [“AMINE 1”, bis(3-aminopropyl)dodecylamine] as the molecule, how does the “Amount of pure active compounds required to suppress growth” value (Pseudomonas fluorescens) read?
Answer: Its value is 50 (=QB) ppm.

Question: What about the “Week 1” value ([1]; 80 ppm) of the same molecule?
Answer: Its value is “ok”.

Question: And the “Week 2” value ([1]; 80 ppm)?
Answer: Its value is “spoilt”.

Question: And the “Week 3” value ([1]; 80 ppm)?
Answer: The value was “spoilt”.

Question: And the “Week 4” value ([1]; 80 ppm)?
Answer: The value was “spoilt”.

Question: And the “Week 5” value ([1]; 80 ppm)?
Answer: Its value is “spoilt”.

Question: What about the “Week 6” value ([1]; 80 ppm) of the same molecule?
Answer: Its value is “spoilt”.

Question: What about the “Week 1” value ([1]; 160 ppm) of the same molecule?
Answer: The value was “ok”.

Question: What about the “Week 2” value ([1]; 160 ppm) of the same molecule?
Answer: The value was “ok”.

Question: And the “Week 3” value ([1]; 160 ppm)?
Answer: The value was “ok”.

Question: What about the “Week 4” value ([1]; 160 ppm) of the same molecule?
Answer: Its value is “spoilt”.

Question: And the “Week 5” value ([1]; 160 ppm)?
Answer: Its value is “spoilt”.

Question: What about the “Week 6” value ([1]; 160 ppm) of the same molecule?
Answer: The value was “spoilt”.

Question: How did the “Amount of pure active compounds required to suppress growth” value (Pseudomonas fluorescens) turn out when `Oc1ccccc1-c1ccccc1` [OPP, o-phenylphenol] was run?
Answer: Its value is 500 (=QA) ppm.

Question: And the “Week 1” value ([1]; 150 ppm)?
Answer: Its value is “ok”.

Question: And the “Week 2” value ([1]; 150 ppm)?
Answer: The value was “spoilt”.

Question: And the “Week 3” value ([1]; 150 ppm)?
Answer: Its value is “spoilt”.

Question: What about the “Week 4” value ([1]; 150 ppm) of the same molecule?
Answer: Its value is “spoilt”.

Question: And the “Week 5” value ([1]; 150 ppm)?
Answer: The value was “spoilt”.

Question: What about the “Week 6” value ([1]; 150 ppm) of the same molecule?
Answer: Its value is “spoilt”.

Question: And the “Week 1” value ([1]; 200 ppm)?
Answer: The value was “ok”.

Question: And the “Week 2” value ([1]; 200 ppm)?
Answer: The value was “ok”.

Question: And the “Week 3” value ([1]; 200 ppm)?
Answer: The value was “ok”.

Question: What about the “Week 4” value ([1]; 200 ppm) of the same molecule?
Answer: The value was “ok”.

Question: And the “Week 5” value ([1]; 200 ppm)?
Answer: Its value is “spoilt”.

Question: And the “Week 6” value ([1]; 200 ppm)?
Answer: The value was “spoilt”.
